# Measurements taken from patent US12331054B2, “Perk inhibiting imidazolopyrazine compounds” (HiberCell, Inc., priority 2019, dated 2025).
# Columns and labels:
# [1] = tested on: eIF2α in HEK293-EGFP-eIF2α cells; assay: PERK Cellular Assay (HEK293-EGFP-eIF2α cells, tunicamycin-induced ER stress, TR-FRET); type: cell-based; details: tunicamycin 2 hours
# In short: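 Cells pre-incubated with inhibitor 30 min at 37 °C, then ER stress induced with […] tunicamycin for 2 h. TR-FRET read on lysates; ratio normalized to DMSO control as percent inhibition over a 10-point, 3-fold dilution series; IC50 from 4-parameter logistic fit.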
# [2] = target: Recombinant human EIF2AK3 (PERK) catalytic domain (amino acids 536-1116) (Homo sapiens (Human), UniProt Q9NZJ5); assay: PERK In Vitro Activity Assay (isolated), TR-FRET kinase assay; details: isolated PERK enzyme, 1.5 μM ATP, read-out: Biochemical IC50
# Sequence of Recombinant human EIF2AK3 (PERK) catalytic domain (amino acids 536-1116) (Q9NZJ5 536-1116): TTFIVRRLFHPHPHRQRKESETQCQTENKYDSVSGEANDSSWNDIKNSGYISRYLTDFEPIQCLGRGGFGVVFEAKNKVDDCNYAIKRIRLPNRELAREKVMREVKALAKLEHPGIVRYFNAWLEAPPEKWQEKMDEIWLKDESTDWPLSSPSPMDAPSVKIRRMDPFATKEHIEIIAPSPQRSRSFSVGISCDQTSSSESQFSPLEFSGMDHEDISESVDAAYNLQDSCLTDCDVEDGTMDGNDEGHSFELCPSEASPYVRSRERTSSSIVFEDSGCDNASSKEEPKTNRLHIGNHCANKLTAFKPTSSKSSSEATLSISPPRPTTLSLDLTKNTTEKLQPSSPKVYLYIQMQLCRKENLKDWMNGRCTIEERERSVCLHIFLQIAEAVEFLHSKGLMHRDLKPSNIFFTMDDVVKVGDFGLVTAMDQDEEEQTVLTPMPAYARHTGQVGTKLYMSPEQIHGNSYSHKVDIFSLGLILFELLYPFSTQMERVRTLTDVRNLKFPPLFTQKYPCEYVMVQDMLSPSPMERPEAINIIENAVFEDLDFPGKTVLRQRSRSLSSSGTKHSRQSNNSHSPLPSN
# In short: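 Recombinant PERK catalytic domain was incubated with 100–200 nM GFP-eIF2a substrate in 50 mM HEPES pH 7.5, 10 mM MgCl2, 1.0 mM EGTA and 0.01% Brij-35 for 45 min at room temperature. After a 10 mM EDTA stop, 2 nM Tb-anti-phospho-eIF2a was added for 90 min, and IC50 was fitted from TR-FRET ratios by 4-parameter logistic regression.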
IC50 [2],SMILES,IC50 [1],IC50 ([1]; 2 h)
1 to 25 nM,"[2H]C([2H])([2H])c1nc(-c2ccc(NC(=O)C(O)c3cccc(Cl)c3)cc2F)c2c(N)ncc(C(F)(F)F)n12 (stereo not drawn) [Example 82, N-[4-[8-amino-3-(trideuteriomethyl)-5-(trifluoromethyl)imidazo[1,5-a]pyrazin-1-yl]-3-fluoro-phenyl]-2-(3-chlorophenyl)-2-hydroxy-acetamide]",1 to 25 nM,–
1 to 25 nM,"[2H]C([2H])([2H])c1nc(-c2ccc(NC(=O)C(O)c3cccc(Cl)c3)cc2F)c2c(N)ncc(C(F)(F)F)n12 (stereo not drawn) [Example 83, N-[4-[8-amino-3-(trideuteriomethyl)-5-(trifluoromethyl)imidazo[1,5-a]pyrazin-1-yl]-3-fluoro-phenyl]-2-(3-chlorophenyl)-2-hydroxy-acetamide]",51 to 100 nM,–
1 to 25 nM,"[2H]C([2H])([2H])c1nc(-c2ccc(NC(=O)C(O)c3cccc(Cl)c3)cc2F)c2c(N)ncc(C)n12 (stereo not drawn) [Example 84, N-[4-[8-amino-5-methyl-3-(trideuteriomethyl)imidazo[1,5-a]pyrazin-1-yl]-3-fluoro-phenyl]-2-(3-chlorophenyl)-2-hydroxy-acetamide]",1 to 25 nM,–
1 to 25 nM,"[2H]C([2H])([2H])c1nc(-c2ccc(NC(=O)C(O)c3cccc(Cl)c3)cc2F)c2c(N)ncc(C)n12 (stereo not drawn) [Example 85, N-[4-[8-amino-5-methyl-3-(trideuteriomethyl)imidazo[1,5-a]pyrazin-1-yl]-3-fluoro-phenyl]-2-(3-chlorophenyl)-2-hydroxy-acetamide]",51 to 100 nM,–
1 to 25 nM,"Cc1cccc(C(O)C(=O)Nc2ccc(-c3nc(C)n4c(C)cnc(N)c34)c(F)c2)c1 (stereo not drawn) [Example 88, N-(4-(8-amino-3,5-dimethylimidazo [1,5-a]pyrazin-1-yl)-3-fluoro-phenyl)-2-hydroxy-2-(m-tolyl)acetamide]",1 to 25 nM,–
1 to 25 nM,"Cc1cccc(C(O)C(=O)Nc2ccc(-c3nc(C)n4c(C)cnc(N)c34)c(F)c2)c1 (stereo not drawn) [Example 89, N-(4-(8-amino-3,5-dimethylimidazo [1,5-a]pyrazin-1-yl)-3-fluoro-phenyl)-2-hydroxy-2-(m-tolyl)acetamide]",51 to 100 nM,–
1 to 25 nM,"[2H]C([2H])([2H])c1nc(-c2ccc(NC(=O)C(O)c3cccc(C)c3)cc2F)c2c(N)ncc(C)n12 (stereo not drawn) [Example 90, N-[4-[8-amino-5-methyl-3-(trideuteriomethyl)imidazo[1,5-a]pyrazin-1-yl]-3-fluoro-phenyl]-2-hydroxy-2-(m-tolyl)acetamide]",–,26 to 50 nM
1 to 25 nM,"[2H]C([2H])([2H])c1nc(-c2ccc(NC(=O)C(O)c3cccc(C)c3)cc2F)c2c(N)ncc(C)n12 (stereo not drawn) [Example 91, N-[4-[8-amino-5-methyl-3-(trideuteriomethyl)imidazo[1,5-a]pyrazin-1-yl]-3-fluoro-phenyl]-2-hydroxy-2-(m-tolyl)acetamide]",51 to 100 nM,–
1 to 25 nM,"Cc1cnc(N)c2c(-c3ccc(NC(=O)C(O)c4cccc(C(F)(F)F)c4)cc3F)nc(C)n12 (stereo not drawn) [Example 92, N-(4-(8-amino-3,5-dimethylimidazo [1,5-a]pyrazin-1-yl)-3-fluoro-phenyl)-2-hydroxy-2-(3-(trifluoromethyl)phenyl)acetamide]",1 to 25 nM,–

# Further lines, the molecule ahead of its results:
SMILES,IC50 [2],IC50 [1],IC50 ([1]; 2 h)
"Cc1cnc(N)c2c(-c3ccc(NC(=O)C(O)c4cccc(F)c4)cc3)nc(C)n12 (stereo not drawn) [Example 68, N-(4-(8-amino-3,5-dimethylimidazo [1,5-a]pyrazin-1-yl)phenyl)-2-(3-fluorophenyl)-2-hydroxyacetamide]",1 to 25 nM,101 to 250 nM,–
"Cc1cnc(N)c2c(-c3ccc(NC(=O)C(O)c4cccc(F)c4)cc3)nc(C)n12 (stereo not drawn) [Example 69, N-(4-(8-amino-3,5-dimethylimidazo [1,5-a]pyrazin-1-yl)phenyl)-2-(3-fluorophenyl)-2-hydroxyacetamide]",1 to 25 nM,1 to 25 nM,–
"Cc1cnc(N)c2c(-c3ccc(NC(=O)C(O)c4cccc(F)c4)cc3F)nc(C)n12 (stereo not drawn) [Example 70, N-(4-(8-amino-3,5-dimethylimidazo [1,5-a]pyrazin-1-yl)-3-fluorophenyl)-2-(3-fluorophenyl)-2-hydroxy-acetamide]",1 to 25 nM,1 to 25 nM,–
"Cc1cnc(N)c2c(-c3ccc(NC(=O)C(O)c4cccc(F)c4)cc3F)nc(C)n12 (stereo not drawn) [Example 71, N-(4-(8-amino-3,5-dimethylimidazo [1,5-a]pyrazin-1-yl)-3-fluorophenyl)-2-(3-fluorophenyl)-2-hydroxy-acetamide]",1 to 25 nM,51 to 100 nM,–
"[2H]C([2H])([2H])c1nc(-c2ccc(NC(=O)C(O)c3cccc(F)c3)cc2F)c2c(N)ncc(C)n12 (stereo not drawn) [Example 72, N-[4-[8-amino-5-methyl-3-(trideuteriomethyl)imidazo[1,5-a]pyrazin-1-yl]-3-fluoro-phenyl]-2-(3-fluorophenyl)-2-hydroxy-acetamide]",1 to 25 nM,–,1 to 25 nM
"[2H]C([2H])([2H])c1nc(-c2ccc(NC(=O)C(O)c3cccc(F)c3)cc2F)c2c(N)ncc(Cl)n12 (stereo not drawn) [Example 74, N-[4-[8-amino-5-chloro-3-(trideuteriomethyl)imidazo[1,5-a]pyrazin-1-yl]-3-fluoro-phenyl]-2-(3-fluorophenyl)-2-hydroxy-acetamide]",1 to 25 nM,1 to 25 nM,–
"[2H]C([2H])([2H])c1nc(-c2ccc(NC(=O)C(O)c3cccc(F)c3)cc2F)c2c(N)ncc(Cl)n12 (stereo not drawn) [Example 75, N-[4-[8-amino-5-chloro-3-(trideuteriomethyl)imidazo[1,5-a]pyrazin-1-yl]-3-fluoro-phenyl]-2-(3-fluorophenyl)-2-hydroxy-acetamide]",1 to 25 nM,26 to 50 nM,–
"[2H]C([2H])([2H])c1nc(-c2ccc(NC(=O)C(O)c3cccc(F)c3)cc2F)c2c(N)ncc(C(F)(F)F)n12 (stereo not drawn) [Example 76, N-[4-[8-amino-3-(trideuteriomethyl)-5-(trifluoromethyl)imidazo[1,5-a]pyrazin-1-yl]-3-fluoro-phenyl]-2-(3-fluorophenyl)-2-hydroxy-acetamide]",1 to 25 nM,1 to 25 nM,–
"[2H]C([2H])([2H])c1nc(-c2ccc(NC(=O)C(O)c3cccc(F)c3)cc2F)c2c(N)ncc(C(F)(F)F)n12 (stereo not drawn) [Example 77, N-[4-[8-amino-3-(trideuteriomethyl)-5-(trifluoromethyl)imidazo[1,5-a]pyrazin-1-yl]-3-fluoro-phenyl]-2-(3-fluorophenyl)-2-hydroxy-acetamide]",1 to 25 nM,51 to 100 nM,–
"Cc1cnc(N)c2c(-c3ccc(NC(=O)C(O)c4cccc(Cl)c4)cc3F)nc(C)n12 (stereo not drawn) [Example 78, N-(4-(8-amino-3,5-dimethylimidazo [1,5-a]pyrazin-1-yl)-3-fluorophenyl)-2-(3-chlorophenyl)-2-hydroxy-acetamide]",1 to 25 nM,–,1 to 25 nM
"[2H]C([2H])([2H])c1nc(-c2ccc(NC(=O)C(O)c3cccc(Cl)c3)cc2F)c2c(N)nc(C)cn12 (stereo not drawn) [Example 80, N-[4-[8-amino-6-methyl-3-(trideuteriomethyl)imidazo[1,5-a]pyrazin-1-yl]-3-fluoro-phenyl]-2-(3-chlorophenyl)-2-hydroxy-acetamide]",1 to 25 nM,1 to 25 nM,–
"[2H]C([2H])([2H])c1nc(-c2ccc(NC(=O)C(O)c3cccc(Cl)c3)cc2F)c2c(N)nc(C)cn12 (stereo not drawn) [Example 81, N-[4-[8-amino-6-methyl-3-(trideuteriomethyl)imidazo[1,5-a]pyrazin-1-yl]-3-fluoro-phenyl]-2-(3-chlorophenyl)-2-hydroxy-acetamide]",1 to 25 nM,101 to 250 nM,–
